Source: ChEMBL document CHEMBL3046848, “Synthesis and biological evaluation of novel series of thieno[2,3-d]pyrimidine derivatives as anticancer and antimicrobial agents” (2013)

Columns and labels:
Assay type in all cases: functional
HCT-116 = assay: Growth inhibition of Homo sapiens (human) HCT116 cells at 10 uM after 48 hr by SRB assay; details: HCT-116, 48 h, read-out: GI
786-0 = assay: Anticancer activity against Homo sapiens (human) 786-0 cells after 48 hr by SRB assay; details: 786-0, 48 h
ACHN = assay: Anticancer activity against Homo sapiens (human) ACHN cells after 48 hr by SRB assay
SNB-19 = assay: Growth inhibition of Homo sapiens (human) SNB19 cells at 10 uM after 48 hr by SRB assay; details: SNB-19, 48 h, read-out: GI
NCI-H460 = assay: Anticancer activity against Homo sapiens (human) NCI-H460 cells after 48 hr by SRB assay; details: NCI-H460, 48 h
A549 = assay: Growth inhibition of Homo sapiens (human) A549/ATCC cells at 10 uM after 48 hr by SRB assay; details: A549, 48 h, read-out: GI
UACC-257 = assay: Anticancer activity against Homo sapiens (human) UACC257 cells after 48 hr by SRB assay; details: UACC-257, 48 h
K562 = assay: Growth inhibition of Homo sapiens (human) K562 cells at 10 uM after 48 hr by SRB assay; details: K562, 48 h, read-out: GI
SK-MEL-28 = assay: Anticancer activity against Homo sapiens (human) SK-MEL-28 cells after 48 hr by SRB assay; details: SK-MEL-28, 48 h
OVCAR-3 = assay: Growth inhibition of Homo sapiens (human) OVCAR3 cells at 10 uM after 48 hr by SRB assay; details: OVCAR-3, 48 h, read-out: GI
KM12 = assay: Anticancer activity against Homo sapiens (human) KM12 cells after 48 hr by SRB assay; details: KM12, 48 h
MOLT-4 = assay: Growth inhibition of Homo sapiens (human) MOLT4 cells at 10 uM after 48 hr by SRB assay; details: MOLT-4, 48 h, read-out: GI
BT-549 = assay: Growth inhibition of Homo sapiens (human) BT549 cells at 10 uM after 48 hr by SRB assay; details: BT-549, 48 h, read-out: GI
SW-620 = assay: Anticancer activity against Homo sapiens (human) SW620 cells after 48 hr by SRB assay; details: SW-620, 48 h
U-251 = assay: Anticancer activity against Homo sapiens (human) U251 cells after 48 hr by SRB assay; details: U-251, 48 h
Pseudomonas aeruginosa = assay: Antimicrobial activity against Pseudomonas aeruginosa ATCC9027 assessed as diameter of growth inhibition zone at 1 mg/ml after 24 hr by agar cup diffusion method; details: ATCC9027, 24 h, read-out: IZ
SN12C = assay: Growth inhibition of Homo sapiens (human) SN12C cells at 10 uM after 48 hr by SRB assay; details: read-out: GI
MDA-MB-468 = assay: Anticancer activity against Homo sapiens (human) MDA-MB-468 cells after 48 hr by SRB assay; details: MDA-MB-468, 48 h
[1] = read-out: LC50 (the source's name)

Compound: Cc1c(C(N)=O)sc2nc(C)n(/N=c3\scc(-c4ccccc4)n3Cc3ccccc3)c(=O)c12
- inhibition of growth at 10 µM (HCT-116): 70.9%
- GI50 (786-0): 3.82 µM
- TGI (786-0): > 100 µM
- CC50 (786-0; [1]): > 100 µM
- GI50 (ACHN): 2.86 µM
- TGI (ACHN): > 100 µM
- CC50 (ACHN; [1]): > 100 µM
- inhibition of growth at 10 µM (SNB-19): 70.6%
- GI50 (NCI-H460): 2.65 µM
- TGI (NCI-H460): 7.34 µM
- CC50 (NCI-H460; [1]): > 100 µM
- inhibition of growth at 10 µM (A549): 100%
- GI50 (UACC-257): 3.56 µM
- TGI (UACC-257): 24.3 µM
- CC50 (UACC-257; [1]): > 100 µM
- inhibition of growth at 10 µM (K562): 91.6%
- GI50 (SK-MEL-28): 3.56 µM
- TGI (SK-MEL-28): > 100 µM
- CC50 (SK-MEL-28; [1]): > 100 µM
- inhibition of growth at 10 µM (OVCAR-3): 95.7%
- GI50 (KM12): 3.37 µM
- TGI (KM12): > 100 µM
- CC50 (KM12; [1]): > 100 µM
- inhibition of growth at 10 µM (MOLT-4): 87.9%
- inhibition of growth at 10 µM (BT-549): 107%
- GI50 (SW-620): 3.16 µM
- TGI (SW-620): > 100 µM
- CC50 (SW-620; [1]): > 100 µM
- GI50 (U-251): 3.31 µM
- TGI (U-251): > 100 µM
- CC50 (U-251; [1]): > 100 µM
- zone of inhibition at 1000 µg/mL (Pseudomonas aeruginosa): 17 mm
- inhibition of growth at 10 µM (SN12C): 52.3%
- GI50 (MDA-MB-468): 2.65 µM
- TGI (MDA-MB-468): > 100 µM
- CC50 (MDA-MB-468; [1]): > 100 µM
